Measurements: US11753407B2, “Compounds for treating spinal muscular atrophy” (PTC Therapeutics, Inc., priority 2012, dated 2023)

How the values were obtained:
[1] = test system: Smn protein in SMA patient fibroblast cells (GM03813); assay: Smn protein assay in cultured cells (SMN HTRF); type: cell-based, human; conditions: SMA patient fibroblast cells, 48 hours; for EC1.5x for Smn protein expression: 7-point concentration curve, SMN HTRF, concentration producing 1.5 times Smn protein vs DMSO vehicle control; for maximum fold (Fold) increase of Smn protein: 7-point concentration data, fold relative to vehicle control
How it was run: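 Smn protein quantified by HTRF with anti-SMN d2/kryptate pair, 665/620 nm ratio blank-corrected, in RIPA lysates of GM03813 fibroblasts after 48 h compound exposure (7 concentrations, 3.16-fold steps, triplicates). Values: concentration producing 1.5× vehicle Smn level, and maximal fold increase.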

[2] = test system: SMN2 minigene mRNA (SMN2-A minigene) in HEK293H cells; assay: SMN2 minigene mRNA splicing RT-qPCR assay in cultured cells; type: cell-based, human; conditions: Homo sapiens, HEK293-H; concentration increasing full length SMN2 mRNA 1.5-fold relative to vehicle-treated cells; HEK293H cells with SMN2-A minigene, 24 hours, 7-point concentration data; read-out: EC1.5x for production of full length SMN2 mRNA
How it was run: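 EC1.5× = concentration raising full-length SMN2 minigene mRNA 1.5-fold over vehicle, from 7-point curves in duplicate. Stably transfected HEK293H cells exposed 24 h at 37 °C; lysates assayed by multiplex RT-qPCR, minigene FL signal normalized to GAPDH via modified ΔΔCt.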

## CCc1nc(C)cn2nc(-c3cc(=O)n4cc(N5CCN[C@@H](C)C5)cc(C)c4n3)cc12 [Compound 787, 2-(4-ethyl-6-methylpyrazolo[1,5-a]pyrazin-2-yl)-9-methyl-7-[(3S)-3-methylpiperazin-1-yl]-4H-pyrido[1,2-a]pyrimidin-4-one]
[1]
  EC1.5x for Smn protein expression: **** (an EC1.5x≤0.3 μM is indicated by four stars (****))
  maximum fold (Fold) increase of Smn protein: ***** (a fold increase >1.65 is indicated by five stars (*****))
[2]
  EC (1.5-fold increase): < 0.1 µM
other
  melting point: 227 to 236 °C

## Cc1cc(C2CCN(CCO)CC2)cn2c(=O)cc(-c3ccc4c(cnn4C)c3)nc12 [Compound 788, 7-[1-(2-hydroxyethyl)piperidin-4-yl]-9-methyl-2-(1-methyl-1H-indazol-5-yl)-4H-pyrido[1,2-a]pyrimidin-4-one]
[1]
  EC1.5x for Smn protein expression: **** (an EC1.5x≤0.3 μM is indicated by four stars (****))
  maximum fold (Fold) increase of Smn protein: ***** (a fold increase >1.65 is indicated by five stars (*****))
[2]
  EC (1.5-fold increase): < 0.1 µM
other
  melting point: 225 to 228 °C

## CCc1nc(C)cn2nc(-c3cc(=O)n4cc(N5CCN(C)[C@@H](C)C5)cc(C)c4n3)cc12 [Compound 789, 7-[(3S)-3,4-dimethylpiperazin-1-yl]-2-(4-ethyl-6-methylpyrazolo[1,5-a]pyrazin-2-yl)-9-methyl-4H-pyrido[1,2-a]pyrimidin-4-one]
[1]
  EC1.5x for Smn protein expression: **** (an EC1.5x≤0.3 μM is indicated by four stars (****))
  maximum fold (Fold) increase of Smn protein: ***** (a fold increase >1.65 is indicated by five stars (*****))
[2]
  EC (1.5-fold increase): < 0.1 µM
other
  melting point: 235 to 241 °C

## Cc1nc(C2=CCNCC2)cn2c(=O)cc(-c3ccc4nn(C)cc4c3)nc12 [Compound 791, 9-methyl-2-(2-methyl-2H-indazol-5-yl)-7-(1,2,3,6-tetrahydropyridin-4-yl)-4H-pyrazino[1,2-a]pyrimidin-4-one]
[1]
  EC1.5x for Smn protein expression: **** (an EC1.5x≤0.3 μM is indicated by four stars (****))
  maximum fold (Fold) increase of Smn protein: ***** (a fold increase >1.65 is indicated by five stars (*****))
[2]
  EC (1.5-fold increase): < 0.1 µM
other
  melting point: > 240 °C (dec.)

## CCc1nc(C)cn2nc(-c3cc(=O)n4cc(C5CCN(C6CCC6)CC5)cc(C)c4n3)cc12 [Compound 792, 7-(1-cyclobutylpiperidin-4-yl)-2-(4-ethyl-6-methylpyrazolo[1,5-a]pyrazin-2-yl)-9-methyl-4H-pyrido[1,2-a]pyrimidin-4-one]
[1]
  EC1.5x for Smn protein expression: *** (an EC1.5× between >0.3 μM and ≤1 μM is indicated by three stars (***))
  maximum fold (Fold) increase of Smn protein: ***** (a fold increase >1.65 is indicated by five stars (*****))
[2]
  EC (1.5-fold increase): < 0.1 µM
other
  melting point: 231 to 237 °C

## CCc1nc(C)cn2nc(-c3cc(=O)n4cc(C5CCN(CCO)CC5)cc(C)c4n3)cc12 [Compound 793, 2-(4-ethyl-6-methylpyrazolo[1,5-a]pyrazin-2-yl)-7-[1-(2-hydroxyethyl)piperidin-4-yl]-9-methyl-4H-pyrido[1,2-a]pyrimidin-4-one]
[1]
  EC1.5x for Smn protein expression: **** (an EC1.5x≤0.3 μM is indicated by four stars (****))
  maximum fold (Fold) increase of Smn protein: ***** (a fold increase >1.65 is indicated by five stars (*****))
[2]
  EC (1.5-fold increase): < 0.1 µM
other
  melting point: 210 to 216 °C

## CCc1cc(-c2cc(=O)n3cc(N4CCN5CCC[C@@H]5C4)ccc3n2)cn2cc(C)nc12 [Compound 794, 2-(8-ethyl-2-methylimidazo[1,2-a]pyridin-6-yl)-7-[(8aR)-hexahydropyrrolo[1,2-a]pyrazin-2(1H)-yl]-4H-pyrido[1,2-a]pyrimidin-4-one]
[1]
  EC1.5x for Smn protein expression: **** (an EC1.5x≤0.3 μM is indicated by four stars (****))
  maximum fold (Fold) increase of Smn protein: ***** (a fold increase >1.65 is indicated by five stars (*****))
[2]
  EC (1.5-fold increase): < 0.1 µM
other
  melting point: 231 to 235 °C

## CCc1cc(-c2cc(=O)n3cc(N4CCN5CCC[C@H]5C4)ccc3n2)cn2cc(C)nc12 [Compound 795, 2-(8-ethyl-2-methylimidazo[1,2-a]pyridin-6-yl)-7-[(8aS)-hexahydropyrrolo[1,2-a]pyrazin-2(1H)-yl]-4H-pyrido[1,2-a]pyrimidin-4-one]
[1]
  EC1.5x for Smn protein expression: **** (an EC1.5x≤0.3 μM is indicated by four stars (****))
  maximum fold (Fold) increase of Smn protein: ***** (a fold increase >1.65 is indicated by five stars (*****))
[2]
  EC (1.5-fold increase): < 0.1 µM
other
  melting point: 229 to 233 °C

## Cc1nc(C2CCNCC2)cn2c(=O)cc(-c3ccc4nn(C)cc4c3)nc12 [Compound 796, 9-methyl-2-(2-methyl-2H-indazol-5-yl)-7-(piperidin-4-yl)-4H-pyrazino[1,2-a]pyrimidin-4-one]
[1]
  EC1.5x for Smn protein expression: **** (an EC1.5x≤0.3 μM is indicated by four stars (****))
  maximum fold (Fold) increase of Smn protein: ***** (a fold increase >1.65 is indicated by five stars (*****))
[2]
  EC (1.5-fold increase): < 0.1 µM
other
  melting point: 229 to 235 °C

## Cc1cn2nc(-c3cc(=O)n4cc(N5CC[C@H](CN)C5)ccc4n3)cc2c(C)n1 [Compound 797, 7-[(3R)-3-(aminomethyl)pyrrolidin-1-yl]-2-(4,6-dimethylpyrazolo[1,5-a]pyrazin-2-yl)-4H-pyrido[1,2-a]pyrimidin-4-one]
[1]
  EC1.5x for Smn protein expression: * (An EC1.5× for Smn protein expression between >3 μM and ≤10 μM is indicated by one star (*))
  maximum fold (Fold) increase of Smn protein: *** (a fold increase between >1.35 and ≤1.5 is indicated by three stars (***))
[2]
  EC (1.5-fold increase): 1 to 3 µM
other
  melting point: 214 to 217 °C

## Cc1cn2nc(-c3cc(=O)n4cc(N5CC[C@H](CN(C)C)C5)ccc4n3)cc2c(C)n1 [Compound 799, 7-{(3R)-3-[(dimethylamino)methyl]pyrrolidin-1-yl}-2-(4,6-dimethylpyrazolo[1,5-a]pyrazin-2-yl)-4H-pyrido[1,2-a]pyrimidin-4-one]
[1]
  EC1.5x for Smn protein expression: **** (an EC1.5x≤0.3 μM is indicated by four stars (****))
  maximum fold (Fold) increase of Smn protein: ***** (a fold increase >1.65 is indicated by five stars (*****))
[2]
  EC (1.5-fold increase): < 0.1 µM
other
  melting point: 229 to 231 °C

## Cc1cn2nc(-c3cc(=O)n4cc(C5C[C@H](C)N[C@@H](C)C5)ccc4n3)cc2c(C)n1 (stereo partly drawn) [Compound 800, 7-[(2S,6S)-2,6-dimethylpiperidin-4-yl]-2-(4,6-dimethylpyrazolo[1,5-a]pyrazin-2-yl)-4H-pyrido[1,2-a]pyrimidin-4-one]
[1]
  EC1.5x for Smn protein expression: **** (an EC1.5x≤0.3 μM is indicated by four stars (****))
  maximum fold (Fold) increase of Smn protein: ***** (a fold increase >1.65 is indicated by five stars (*****))
[2]
  EC (1.5-fold increase): < 0.1 µM
other
  melting point: 248 to 250 °C

## COc1ccc(-c2cc(=O)n3cc(N4CCNCC4)ccc3n2)cc1 [Cpd 1, 2-(4-methoxyphenyl)-7-(piperazin-1-yl)-4H-pyrido[1,2-a]pyrimidin-4-one]
[1]
  maximum fold (Fold) increase of Smn protein: ** (a fold increase between >1.2 and ≤1.35 is indicated by two stars (**))
[2]
  EC (1.5-fold increase): 0.3 to 1 µM
other
  melting point: 182 to 184 °C

## Cc1ccc2nc(-c3cc(=O)n4cc(N5CCNCC5)ccc4n3)cn2c1 [Cpd 29, 2-(6-methylimidazo[1,2-a]pyridin-2-yl)-7-(piperazin-1-yl)-4H-pyrido[1,2-a]pyrimidin-4-one]
[1]
  maximum fold (Fold) increase of Smn protein: *** (a fold increase between >1.35 and ≤1.5 is indicated by three stars (***))
[2]
  EC (1.5-fold increase): 3 to 30 µM
other
  melting point: 193 to 198 °C
